Data on eight compounds can be found in patent publication US20170360875A1 (priority 2014, published 2017).

In one assay the test system is C1q. The assay is classed as binding, human.
For assay [1], the system named is FcγIIb. The class given is binding.
The test system of assay [2] is FcγIIIa. The class given is binding.
Assay [3] concerns FcγI. The class given is binding.
Assay [4] has as its system FcγIIa (H131 allele). The class given is binding, human.
A further assay deals with FcγIIb/c. The assay is classed as binding.
For assay [5], the system named is FcγIIIb (NA2). The assay is classed as binding.
The subject of assay [6] is Sudan Ebolavirus Glycoprotein (GP). The assay is classed as binding.
Assay [7] relates to hepatitis A virus. The assay is classed as binding. The conditions noted are these: for 1:10 HAV (OD 405 nm): 1:10 virus dilution, IC alone 0.997; for 1:100 HAV (OD 405 nm): 1:100 virus dilution, IC alone 0.953.
Assay [8] concerns hepatitis C virus core protein. The class given is binding. The settings on record: NB406 10 mg/mL.
Assay [9] concerns Influenza A/MAL/NY/6750/78 H2N2 virus. The conditions noted are these: for Percent Inhibition, 1:10 IAV / Percent Inhibition, 1:100 IAV: /MAL/NY/6750/78 H2N2 virus.
Assay [10] concerns the target Influenza A/MAL/NY/6750/78 H2N2 virus. Description: reverse ELISA control; HRP without antibody on plate coated with IAV 1:10. In general terms: In an ELISA, binding on a coated surface is turned into a signal by an enzyme label.
For assay [11], the target named is hepatitis A virus. Description: reverse ELISA control; HRP without antibody on plate coated with HAV 1:10.
Assay [12] deals with Influenza A/MAL/NY/6750/78 H2N2 virus. Description: reverse ELISA control; HRP without antibody on plate coated with IAV 1:100.
Assay [13] addresses hepatitis A virus. Description: reverse ELISA control; HRP without antibody on plate coated with HAV 1:100.
Assay [14] addresses hepatitis C virus core protein (hepatitis C virus). In words: reverse ELISA control; HRP without antibody on plate coated with 5 µg HCV core protein.
Another assay has as its target FcγIIa (R131 allele) (UniProt P12318).
Assay [15] deals with FcγIIa (H131 allele) (UniProt P12318).
The target in assay [16] is recombinant Sudan Ebolavirus glycoprotein (IBT Bioservices, Catalogue Number 0501-015) (Sudan Ebolavirus).
The target in assay [17] is human C1q (Quidel Corp.) (human) (UniProt P02745). Description: reverse ELISA; PAP IC without inhibitor on C1q-coated plate.
Assay [18] deals with FcγI (UniProt P12314). In words: reverse ELISA; PAP IC without inhibitor on plate coated with FcγI.
Assay [19] deals with FcγIIb (UniProt P31994). Description: reverse ELISA; PAP IC without inhibitor on plate coated with FcγIIb.
Assay [20] has as its target FcγIIIa (UniProt P08637). Description: reverse ELISA; PAP IC without inhibitor on plate coated with FcγIIIa.
The target in assay [21] is FcγIIb (UniProt P31994). In words: reverse ELISA; PAP IC without inhibitor on plate coated with FcγIIb/c.
Assay [22] concerns the target Influenza A/MAL/NY/6750/78 H2N2 virus. Description: reverse ELISA; PAP IC without inhibitor on plate coated with IAV 1:10.
For assay [23] the target is unchanged. In words: reverse ELISA; PAP IC without inhibitor on plate coated with IAV 1:100.
Assay [24] addresses FcγIIIb (NA2) (UniProt O75015). In words: reverse ELISA; PAP IC without inhibitor on plate coated with FcγIIIb (NA2).
Assay [25] concerns the target hepatitis A virus. Description: reverse ELISA; PAP IC without inhibitor on plate coated with HAV 1:10; average of three experiments.
Assay [26] addresses hepatitis A virus. Description: reverse ELISA; PAP IC without inhibitor on plate coated with HAV 1:100; average of three experiments.
The target of assay [27] is hepatitis C virus core protein (hepatitis C virus). Description: reverse ELISA; PAP IC without inhibitor on plate coated with 5 µg HCV core protein; average of three experiments.
Where [28] appears, read: NB406 10 mg/mL, average of three experiments.

Several values for one entry are separate records, joined by “and”; a condition that tells them apart may be missing. Equal entries are not always repeated. Where two headings read alike, the source gives them in different places. Ends that are not written are not given here.

Chain of UniProt P31994 (P31994 46-217 limits assumed): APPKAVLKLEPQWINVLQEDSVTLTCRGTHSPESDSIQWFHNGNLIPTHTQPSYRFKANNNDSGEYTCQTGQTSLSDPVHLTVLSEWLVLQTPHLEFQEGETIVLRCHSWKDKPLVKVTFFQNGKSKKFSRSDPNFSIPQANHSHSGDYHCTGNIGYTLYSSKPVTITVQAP
Chain of UniProt P08637 (P08637 17-208): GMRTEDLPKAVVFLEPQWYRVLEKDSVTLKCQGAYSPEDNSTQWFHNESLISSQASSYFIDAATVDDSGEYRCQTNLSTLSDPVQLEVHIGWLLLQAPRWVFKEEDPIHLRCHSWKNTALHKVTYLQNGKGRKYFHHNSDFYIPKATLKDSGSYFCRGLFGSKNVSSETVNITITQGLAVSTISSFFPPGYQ
Chain of UniProt P02745 (P02745 23-245 limits assumed, chain 1 of 3): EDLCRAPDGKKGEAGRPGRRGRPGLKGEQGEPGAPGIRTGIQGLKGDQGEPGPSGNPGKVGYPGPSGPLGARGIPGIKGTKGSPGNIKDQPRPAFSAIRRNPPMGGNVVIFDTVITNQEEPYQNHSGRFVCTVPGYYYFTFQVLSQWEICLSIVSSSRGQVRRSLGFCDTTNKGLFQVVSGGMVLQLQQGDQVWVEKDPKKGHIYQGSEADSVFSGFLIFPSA
Chain of UniProt P02745 (P02746 28-253 limits assumed, chain 2 of 3, further chain): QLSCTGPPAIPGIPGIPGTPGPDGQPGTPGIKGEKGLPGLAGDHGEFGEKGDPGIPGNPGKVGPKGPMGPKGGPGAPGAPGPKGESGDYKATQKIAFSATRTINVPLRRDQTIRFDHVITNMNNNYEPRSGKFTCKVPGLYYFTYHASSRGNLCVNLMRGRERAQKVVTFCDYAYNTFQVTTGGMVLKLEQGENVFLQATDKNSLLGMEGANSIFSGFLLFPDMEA
Chain of UniProt P02745 (P02747 29-245 limits assumed, chain 3 of 3, further chain): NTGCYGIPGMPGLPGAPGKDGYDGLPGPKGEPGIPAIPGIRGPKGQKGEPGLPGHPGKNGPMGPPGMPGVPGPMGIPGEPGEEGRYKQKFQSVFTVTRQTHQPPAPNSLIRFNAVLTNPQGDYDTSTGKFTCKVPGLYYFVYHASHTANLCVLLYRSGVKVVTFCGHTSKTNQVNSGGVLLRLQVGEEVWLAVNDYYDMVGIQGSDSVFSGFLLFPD
Chain of UniProt P12314 (P12314 16-288 limits assumed): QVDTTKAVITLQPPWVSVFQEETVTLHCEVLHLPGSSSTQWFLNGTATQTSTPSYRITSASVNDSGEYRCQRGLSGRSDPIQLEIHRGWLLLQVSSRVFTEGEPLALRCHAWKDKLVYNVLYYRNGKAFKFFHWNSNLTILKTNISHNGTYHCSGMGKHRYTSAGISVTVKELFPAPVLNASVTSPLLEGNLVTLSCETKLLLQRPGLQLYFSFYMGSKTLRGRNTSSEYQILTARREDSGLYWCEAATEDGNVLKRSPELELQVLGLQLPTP
Chain of UniProt O75015 (O75015 17-200 N65S): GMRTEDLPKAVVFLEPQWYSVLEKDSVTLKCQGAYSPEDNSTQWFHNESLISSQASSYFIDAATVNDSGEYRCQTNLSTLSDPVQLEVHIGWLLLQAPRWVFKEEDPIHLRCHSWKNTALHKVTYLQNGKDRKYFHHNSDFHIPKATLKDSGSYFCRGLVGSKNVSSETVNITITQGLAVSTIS

On to `CC(C)C[C@@H]1NC(=O)[C@H](Cc2c[nH]cn2)NC(=O)[C@H](Cc2c[nH]c3ccccc23)NC(=O)[C@H](C)NC(=O)[C@@H](NC(=O)[C@H](CC(=O)O)NC(=O)[C@@H]2CCCN2C(=O)[C@@H]2CCCN2C(=O)[C@H](C)N)CSSC[C@@H](C(=O)N[C@H](C(=O)O)[C@@H](C)O)NC(=O)[C@H](Cc2c[nH]c3ccccc23)NC(=O)[C@H](C(C)C)NC(=O)[C@H](CC(C)C)NC(=O)[C@H](CCC(=O)O)NC(=O)CNC1=O` [SEQ ID NO:20], for which, in the assay with C1q, the “OD 405 nm” value amounted to 0.389 and the “inhibition of C1q binding (rank in words)” value was “greatest inhibition of C1q binding”. In addition, the “OD405 FcγIIb” value in the assay with FcγIIb [1] was 0.496. Besides, the “OD405 FcγIIIa” value in the assay on FcγIIIa [2] is 0.670. In the assay with FcγI [3], the “% inhibition of IC binding, FcγI” value was determined as 89% and the “FcγI (read at 405 nm)” value worked out at 0.264. For the same compound, in the assay on FcγIIa (H131 allele) [4], the “% inhibition of IC binding, FcγIIa* (H131 allele)” value was determined as 94%; the “FcγIIa* (H131 allele) (read at 405 nm)” value is reported as 0.209; the “inhibited binding of FcγRIIa to immune complexed IgG Fc” value is listed as “more than 70%”. Further, in the assay with FcγIIb/c, the “% inhibition of IC binding, FcγIIb/c” value is 88%; the “FcγIIb/c (read at 405 nm)” value amounted to 0.266; the “inhibited binding of FcγRIIb to immune complexed IgG Fc” value is “more than 70%”. In the assay on FcγIIIb (NA2) [5], the “% inhibition of IC binding, FcγIIIb (NA2)” value stood at 91% and the “FcγIIIb (NA2) (read at 405 nm)” value is 0.266. Besides, in assay [6], the “1 ug/mL GP (OD read at 405 nm)” value was 0.042 and 0.053 and 0.071; the “3 ug/mL GP (OD read at 405 nm)” value was 0.042 and 0.046 and 0.081; the “Percent Inhibition, 1 ug/mL GP” value is 96.8% and 96.0% and 94.6%; the “Percent Inhibition, 3 ug/mL GP” value was 96.9% and 96.7% and 94.1%. Moreover, in assay [6], the “Percent Inhibition, 10 ug/mL GP” value was 97.1% and 96.4% and 94.1%; the “prevention of binding of IC to the Ebolavirus glycoprotein (in words)” value was “can effectively prevent the binding of IC to the Ebolavirus glycoprotein”. In the assay on hepatitis A virus [7] (NB406 1.11 mg/mL), the “1:10 HAV (OD 405 nm)” value stood at 0.762 and the “1:100 HAV (OD 405 nm)” value came to 0.774. Moreover, in the assay on hepatitis A virus [7] (NB406 3.33 mg/mL), the “1:10 HAV (OD 405 nm)” value is given as 0.305 and the “1:100 HAV (OD 405 nm)” value amounted to 0.155. Also, in the assay on hepatitis A virus [7] (setting [28]), the “1:10 HAV (OD 405 nm)” value is 0.050 and the “1:100 HAV (OD 405 nm)” value is 0.055. Moreover, the “prevention of binding of IC to the hepatitis A virus (in words)” value with hepatitis A virus [7] (conclusion from Table 5) was “can effectively prevent the binding of IC to the hepatitis A virus”. Besides, the “Percent Inhibition, 5 μg HCV Core Protein” value in assay [8] stood at 89.7%. Besides, in [8] (IC alone 2.752, average of three experiments), the “5 μg HCV Core Protein (OD 405 nm)” value stood at 0.283. Also, in the assay with Sudan Ebolavirus (SEBOV), the “prevention of binding of IC to the Ebola virus (in words)” value was “can effectively prevent the binding of IC to the Ebola virus”. In the assay with Sudan Ebolavirus (SEBOV) (1 mg/mL), the “Percent Inhibition, 1:100 SEV” value was determined as 77.6%; the “Percent Inhibition, 1:1000 SEV” value is 64.8%; the “Percent Inhibition, 1:10000 SEV” value turned out to be 58.6%. Moreover, in the assay with Sudan Ebolavirus (SEBOV) (3 mg/mL), the “Percent Inhibition, 1:100 SEV” value was determined as 95.1%; the “Percent Inhibition, 1:1000 SEV” value amounted to 94.6%; the “Percent Inhibition, 1:10000 SEV” value was found to be 94.6%. Also, in the assay with Sudan Ebolavirus (SEBOV) (10 mg/mL), the “Percent Inhibition, 1:100 SEV” value was found to be 96.6%; the “Percent Inhibition, 1:1000 SEV” value is recorded as 96.3%; the “Percent Inhibition, 1:10000 SEV” value was 96.3%. For the same compound, the “prevention of binding of IC to the influenza virus (in words)” value in assay [9] is “can effectively prevent the binding of IC to the influenza virus”. Also, in assay [9] (0.37 mg/mL), the “Percent Inhibition, 1:10 IAV” value is listed as 63.5% and the “Percent Inhibition, 1:100 IAV” value is 61.6%. In [9] (1.11 mg/mL), the “Percent Inhibition, 1:10 IAV” value came to 89.5% and the “Percent Inhibition, 1:100 IAV” value worked out at 88.7%. Moreover, in [9] (3.33 mg/mL), the “Percent Inhibition, 1:10 IAV” value is on record as 96.6% and the “Percent Inhibition, 1:100 IAV” value came out at 96.0%. Also, in assay [9] (10 mg/mL), the “Percent Inhibition, 1:10 IAV” value is 97.6% and the “Percent Inhibition, 1:100 IAV” value is on record as 97.0%.
Consider “APPCAFHLGELVWCT (cysteine pairing not given here) [SEQ ID NO:18]”, for which the “OD 405 nm” value in the assay with C1q is 0.983. In the assay on FcγIIb [1], the “OD405 FcγIIb” value amounted to 0.380. Further, the “OD405 FcγIIIa” value with FcγIIIa [2] turned out to be 0.880.
For “APPCARHLGELVWCT (cysteine pairing not given here) [SEQ ID NO:16]”, in the assay on C1q, the “OD 405 nm” value worked out at 0.567 and the “inhibition of C1q binding (rank in words)” value is recorded as “next best result”. In addition, the “OD405 FcγIIb” value in the assay on FcγIIb [1] worked out at 0.768. For the same compound, the “OD405 FcγIIIa” value with FcγIIIa [2] is on record as 0.709.
For “APPCAWHLGELVWCT (cysteine pairing not given here) [SEQ ID NO:14]”, the “OD 405 nm” value in the assay on C1q was found to be 1.148. For the same compound, the “OD405 FcγIIb” value with FcγIIb [1] stood at 0.562. In the assay with FcγIIIa [2], the “OD405 FcγIIIa” value is on record as 0.530.
In the same order, the values of “Asp-Cys-Ala-Phe-His-Leu-Gly-Glu-Leu-Val-Trp-Cys-Thr [SEQ ID NO:3]” are 0.859, 0.510 and 0.810.
As for “Asp-Cys-Ala-Trp-His-Leu-Gly-Glu-Leu-Val-Trp-Cys-Thr [SEQ ID NO:2]”, the “OD 405 nm” value in the assay on C1q came to 1.100. For the same compound, the “OD405 FcγIIb” value in the assay with FcγIIb [1] was determined as 0.532. Moreover, in the assay on FcγIIIa [2], the “OD405 FcγIIIa” value was 0.741.
In the case of “horseradish peroxidase (HRP), Sigma-Aldrich P6782 (from UniProt P00433 31-338) (enzyme)”, the OD 405 nm in assay [10] is 0.163 OD 405 nm; with hepatitis A virus [11] it was 0.117 OD 405 nm; in [12] it was 0.178 OD 405 nm; with hepatitis A virus [13], 0.138 OD 405 nm; in assay [14], 0.172 OD 405 nm.
Take “preformed immune complex of peroxidase-rabbit anti-peroxidase IgG (PAP complex) (from UniProt P00433 31-338)”: the OD405 with FcγIIa (R131 allele) was determined as 1.6 OD405; with FcγIIb [19], 1.39 OD405; in the assay with FcγIIIa [20], 1.59 OD405. Moreover, the OD 405 nm with FcγIIa (H131 allele) [15] is 3.51 OD 405 nm; in assay [16] it was 1.61 OD 405 nm and 1.38 OD 405 nm and 1.31 OD 405 nm; in [17] it was 2.35 OD 405 nm; in the assay with FcγI [18] it was 2.33 OD 405 nm; with FcγIIb [21] it was 2.22 OD 405 nm; in assay [22], 1.94 OD 405 nm. Further, the OD 405 nm in assay [23] came out at 1.87 OD 405 nm; with FcγIIIb (NA2) [24] it was 3.06 OD 405 nm; in the assay with hepatitis A virus [25], 0.997 OD 405 nm; with hepatitis A virus [26], 0.953 OD 405 nm; in assay [27], 2.75 OD 405 nm.
